Assay results from PubChem BioAssay AID330 (DTP/NCI, 2004).
Where “and” joins values, the source holds several entries; their conditions need not be identical. Equal entries are not always repeated. Toxic doses and inconclusive results are not listed.

Tested on: P388 leukemia ip, CD2F1 mice, survival T/C
Assay: NCI In Vivo Anticancer Drug Screen. Data for tumor model P388 Leukemia (intraperitoneal) in CD2F1 (CDF1) mice
Settings: endpoint: median survival time, higher = longer survival
Outline: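 Mice carrying the transplanted tumor received test compound or vehicle. Survival was recorded in each group, and the value is the treated-group measurement divided by that of the vehicle-treated control group.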

[1] = dose: 25.0 mg/kg/injection, schedule: Q04DX002 (ip), vehicle: saline with Tween-80
[2] = dose: 50.0 mg/kg/injection, schedule: Q04DX002 (ip), vehicle: saline with Tween-80
[3] = dose: 100.0 mg/kg/injection, schedule: Q04DX002 (ip), vehicle: saline with Tween-80
[4] = dose: 200.0 mg/kg/injection, schedule: Q04DX002 (ip), vehicle: saline with Tween-80
[5] = dose: 50.0 mg/kg/injection, schedule: Q01DX005 (ip), vehicle: saline with Tween-80
[6] = dose: 100.0 mg/kg/injection, schedule: Q01DX005 (ip), vehicle: saline with Tween-80
[7] = dose: 200.0 mg/kg/injection, schedule: Q01DX005 (ip), vehicle: saline with Tween-80
[8] = dose: 60.0 mg/kg/injection, schedule: Q01DX005 (ip), vehicle: saline with Tween-80
[9] = dose: 120.0 mg/kg/injection, schedule: Q01DX005 (ip), vehicle: saline with Tween-80
[10] = dose: 240.0 mg/kg/injection, schedule: Q01DX005 (ip), vehicle: saline with Tween-80
[11] = dose: 50.0 mg/kg/injection, schedule: Q01DX009 (ip), vehicle: saline
[12] = dose: 100.0 mg/kg/injection, schedule: Q01DX009 (ip), vehicle: saline
[13] = dose: 60.0 mg/kg/injection, schedule: Q01DX005 (ip), vehicle: Klucel (hydroxypropylcellulose) (HPC)
[14] = dose: 120.0 mg/kg/injection, schedule: Q01DX005 (ip), vehicle: Klucel (hydroxypropylcellulose) (HPC)
[15] = dose: 25.0 mg/kg/injection, schedule: Q01DX009 (ip), vehicle: saline with Tween-80
[16] = dose: 50.0 mg/kg/injection, schedule: Q01DX009 (ip), vehicle: saline with Tween-80
[17] = dose: 100.0 mg/kg/injection, schedule: Q01DX009 (ip), vehicle: saline with Tween-80
[18] = dose: 200.0 mg/kg/injection, schedule: Q01DX009 (ip), vehicle: saline with Tween-80
[19] = dose: 50.0 mg/kg/injection, schedule: Q01DX005 (ip), vehicle: Klucel (hydroxypropylcellulose) (HPC)
[20] = dose: 100.0 mg/kg/injection, schedule: Q01DX005 (ip), vehicle: Klucel (hydroxypropylcellulose) (HPC)
[21] = dose: 12.5 mg/kg/injection, schedule: Q01DX005 (ip), vehicle: Klucel (hydroxypropylcellulose) (HPC)
[22] = dose: 25.0 mg/kg/injection, schedule: Q01DX005 (ip), vehicle: Klucel (hydroxypropylcellulose) (HPC)
[23] = dose: 100.0 mg/kg/injection, schedule: Q04DX003 (ip), vehicle: saline with Tween-80
[24] = dose: 200.0 mg/kg/injection, schedule: Q04DX003 (ip), vehicle: saline with Tween-80
[25] = dose: 12.5 mg/kg/injection, schedule: Q01DX009 (ip), vehicle: saline with Tween-80
[26] = dose: 100.0 mg/kg/injection, schedule: Q01DX001 (ip), vehicle: Klucel (hydroxypropylcellulose) (HPC)

CN=C(N)N/N=C(\c1ccccc1)c1ccc(Cl)c([N+](=O)[O-])c1
T/C (dose: 12.5 mg/kg/injection, schedule: Q04DX002 (ip), vehicle: saline with Tween-80): 105 % of control | T/C [1]: 105 % of control | T/C [2]: 99 % of control | T/C [3]: 97 % of control | T/C [4]: 98 % of control | T/C (dose: 400.0 mg/kg/injection, schedule: Q04DX002 (ip), vehicle: saline with Tween-80): 113 % of control

Cc1cc(NS(=O)(=O)c2ccc(N=c3c4ccccc4n(C)c4ccccc34)cc2)no1
T/C [5]: 103 % of control | T/C [6]: 102 % of control | T/C [7]: 103 % of control

O=C(Nc1cc(-c2ccccc2)nn1-c1ccccc1)c1ccc(Cl)cc1
T/C [8]: 99 % of control and 94 % of control | T/C [9]: 93 % of control | T/C [10]: 87 % of control and 94 % of control

Sc1ccccc1N=Cc1cccs1
T/C [11]: 90 % of control | T/C [12]: 99 % of control | T/C (dose: 200.0 mg/kg/injection, schedule: Q01DX009 (ip), vehicle: saline): 96 % of control

CCN(CC)CCOc1c(Cl)cc(Cl)cc1Cl
T/C [5]: 93 % of control | T/C [6]: 111 % of control | T/C [7]: 111 % of control

C=C1CC(C2OCOC3COCOC32)OC1=O (configuration not stated)
T/C [13]: 104 % of control | T/C [14]: 111 % of control

CCC(=O)Oc1ccc[nH]c1=O
T/C [15]: 101 % of control | T/C (dose: 25.0 mg/kg/injection, schedule: Q01DX009 (ip), vehicle: saline): 105 % of control and 92 % of control | T/C [16]: 100 % of control | T/C [11]: 100 % of control and 110 % of control | T/C [17]: 100 % of control | T/C [12]: 103 % of control and 94 % of control | T/C [18]: 112 % of control and 121 % of control | T/C (dose: 300.0 mg/kg/injection, schedule: Q01DX009 (ip), vehicle: saline): 115 % of control and 116 % of control | T/C (dose: 400.0 mg/kg/injection, schedule: Q01DX009 (ip), vehicle: Klucel (hydroxypropylcellulose) (HPC)): 123 % of control | T/C (dose: 400.0 mg/kg/injection, schedule: Q01DX009 (ip), vehicle: saline with Tween-80): 122 % of control | T/C (dose: 500.0 mg/kg/injection, schedule: Q01DX009 (ip), vehicle: Klucel (hydroxypropylcellulose) (HPC)): 154 % of control | T/C (dose: 600.0 mg/kg/injection, schedule: Q01DX009 (ip), vehicle: saline with Tween-80): 122 % of control | T/C (dose: 600.0 mg/kg/injection, schedule: Q01DX009 (ip), vehicle: saline): 124 % of control

COc1ccc(C[C@H]2c3c(cc4c(c3OC)OCO4)CCN2C)c(CO)c1OC
T/C (dose: 9.38 mg/kg/injection, schedule: Q01DX005 (ip), vehicle: Klucel (hydroxypropylcellulose) (HPC)): 100 % of control | T/C (dose: 18.75 mg/kg/injection, schedule: Q01DX005 (ip), vehicle: Klucel (hydroxypropylcellulose) (HPC)): 98 % of control | T/C (dose: 37.5 mg/kg/injection, schedule: Q01DX005 (ip), vehicle: Klucel (hydroxypropylcellulose) (HPC)): 94 % of control | T/C (dose: 75.0 mg/kg/injection, schedule: Q01DX005 (ip), vehicle: Klucel (hydroxypropylcellulose) (HPC)): 99 % of control

C=C1C(=O)N2CCc3c([nH]c4ccccc34)[C@H]2C[C@@H]1CO
T/C [19]: 95 % of control | T/C [20]: 88 % of control | T/C (dose: 200.0 mg/kg/injection, schedule: Q01DX005 (ip), vehicle: Klucel (hydroxypropylcellulose) (HPC)): 96 % of control

[O-][N+](O)=C1c2ccccc2-c2ccccc21
T/C (dose: 100.0 mg/kg/injection, schedule: Q04DX003 (ip), vehicle: saline): 100 % of control | T/C (dose: 200.0 mg/kg/injection, schedule: Q04DX003 (ip), vehicle: saline): 103 % of control | T/C (dose: 400.0 mg/kg/injection, schedule: Q04DX003 (ip), vehicle: saline): 102 % of control

CCCCc1c2cnccc2c(CCCC)c2c1[nH]c1ccccc12
T/C [1]: 105 % of control | T/C [2]: 100 % of control | T/C [3]: 96 % of control | T/C [4]: 91 % of control

CCC(=O)NC1c2ccccc2Oc2ccccc21
T/C [5]: 100 % of control | T/C [6]: 100 % of control | T/C [7]: 98 % of control

CC(O)C(O)C=O (configuration not stated)
T/C (dose: 248.0 mg/kg/injection, schedule: Q01DX010 (ip), vehicle: saline): 110 % of control

COc1ccc(Cc2cc(N=NC(N)=O)c(C)cc2O)cc1
T/C [21]: 106 % of control | T/C [22]: 94 % of control | T/C [19]: 97 % of control

O=C(CC(O)(C(F)(F)Cl)C(F)(F)Cl)c1ccco1
T/C (dose: 50.0 mg/kg/injection, schedule: Q04DX003 (ip), vehicle: saline with Tween-80): 109 % of control | T/C [23]: 118 % of control | T/C [24]: 100 % of control

C[n+]1cccc(Oc2ccc[n+](C)c2)c1
T/C [8]: 100 % of control | T/C [9]: 99 % of control | T/C [10]: 109 % of control

CCC(=O)Cc1nc2nnc(N)n2nc1CC(=O)CC
T/C (dose: 50.0 mg/kg/injection, schedule: Q01DX005 (ip), vehicle: saline): 100 % of control | T/C (dose: 100.0 mg/kg/injection, schedule: Q01DX005 (ip), vehicle: saline): 107 % of control | T/C (dose: 200.0 mg/kg/injection, schedule: Q01DX005 (ip), vehicle: saline): 98 % of control

Nc1ccccc1SCc1ccccc1
T/C [15]: 103 % of control | T/C [16]: 100 % of control | T/C [17]: 102 % of control | T/C [18]: 108 % of control

CCn1c2nc(=O)n(C)c(=O)c-2cc2cc(C)ccc21
T/C [25]: 92 % of control | T/C [15]: 101 % of control | T/C [16]: 109 % of control

CS(=O)(=O)c1nnc(-c2cccc[n+]2[O-])s1
T/C [19]: 116 % of control | T/C [20]: 114 % of control

[O-][n+]1c2ccccc2cc2c1c1ccccc1n2O
T/C [21]: 113 % of control | T/C [22]: 107 % of control | T/C [19]: 106 % of control and 93 % of control

CC(=O)n1c(Cl)c(/C=N/Nc2ccccc2[N+](=O)[O-])c2ccccc21
T/C (dose: 25.0 mg/kg/injection, schedule: Q01DX001 (ip), vehicle: Klucel (hydroxypropylcellulose) (HPC)): 91 % of control | T/C (dose: 50.0 mg/kg/injection, schedule: Q01DX001 (ip), vehicle: Klucel (hydroxypropylcellulose) (HPC)): 99 % of control | T/C [26]: 87 % of control and 91 % of control

Cc1ccc(S(=O)(=O)N2CCC(O)(c3ccccc3)CC2)cc1
T/C [26]: 94 % of control | T/C (dose: 200.0 mg/kg/injection, schedule: Q01DX001 (ip), vehicle: Klucel (hydroxypropylcellulose) (HPC)): 94 % of control | T/C (dose: 400.0 mg/kg/injection, schedule: Q01DX001 (ip), vehicle: Klucel (hydroxypropylcellulose) (HPC)): 93 % of control

CCC(CC)COC(=O)c1ccccc1C(=O)OCC(CC)CC
T/C [17]: 110 % of control and 96 % of control | T/C [18]: 101 % of control and 117 % of control

CC(C)c1ccc(C(=O)CCCCl)cc1
T/C [23]: 109 % of control | T/C [24]: 100 % of control | T/C (dose: 400.0 mg/kg/injection, schedule: Q04DX003 (ip), vehicle: saline with Tween-80): 104 % of control

COC(=O)C(=O)c1c(-c2ccc(Cl)c(Cl)c2)[nH]c2[nH]n(-c3ccccc3)c(=O)c2c1=O
T/C [8]: 94 % of control | T/C [9]: 88 % of control | T/C [10]: 88 % of control

O=c1nnc(O)c2ccn(O)cc1-2
T/C [8]: 99 % of control | T/C [9]: 103 % of control | T/C [10]: 99 % of control

CN(C)c1ccc(C2(c3ccc(N(C)C)cc3)c3ccccc3C(=O)N2N)cc1
T/C [5]: 86 % of control | T/C [6]: 86 % of control

c1ccc(CN2C3Oc4ccccc4C2Oc2ccccc23)cc1
T/C [25]: 100 % of control | T/C [15]: 100 % of control | T/C [16]: 91 % of control

C=C(C)c1nc(N(C)C)nc(N(C)C)n1
T/C (dose: 30.0 mg/kg/injection, schedule: Q01DX005 (ip), vehicle: Klucel (hydroxypropylcellulose) (HPC)): 98 % of control | T/C [13]: 88 % of control and 95 % of control | T/C [14]: 88 % of control

CCOC(=O)C(=C/C=C/N(C)C)C(=O)OCC
T/C (dose: 100.0 mg/kg/injection, schedule: Q01DX001 (ip), vehicle: saline): 100 % of control | T/C (dose: 200.0 mg/kg/injection, schedule: Q01DX001 (ip), vehicle: saline): 104 % of control
